Data: patent US7169573B2, “Method for monitoring coagulability and hypercoagulable states” (Oklahoma Medical Research Foundation, priority 2001, dated 2007)
Several values for one entry are separate records, joined by “and”; a condition that tells them apart may be missing. Equal values may be shown once.

How the values were obtained:
[1] = system: soluble endothelial protein C receptor (sEPCR); assay: Plasma soluble EPCR level by monoclonal antibody-based ELISA in subjects on anticoagulant therapy; type: in vivo, human; conditions: for [sEPCR]: individual patients taking Sintrom, plasma, ELISA
Protocol: Soluble EPCR is generated in vitro by metalloproteinase activity induced by thrombin and some inflammatory mediators (Xu et al., 2000). Thus, the inventors chose to determine whether soluble EPCR levels reflected in vivo thrombin generation. To evaluate this, the soluble EPCR levels were determined in patients on oral anticoagulant therapy and compared with soluble EPCR levels found in a normal, apparently healthy adult population (FIGS. 1A and 1B). These samples were obtained from collaborators in France (Dr. M. Grimeaux, Serbio/Diagnostica Stago). The soluble EPCR levels are assayed using a monoclonal antibody-based enzyme-linked immunosorbent assay (ELISA) (U.S. Pat. No. 5,804,392, incorporated by reference herein). […] Previscan is a major oral anticoagulant used in France and Germany. […] The half-life for factor VII is only 3–5 hours, whereas that for prothrombin is 60–100 hrs.
To further evaluate the relationship between plasma sEPCR levels and anticoagulant therapy, samples were obtained from a normal adult population and from patients on intravenous unfractionated heparin therapy (FIG. 3). The data shown in FIGS. 3, 4A, 4B and 5 were obtained from samples contributed by a collaborator in Italy (Dr. Armando D'Angelo, Scientific Institute H. S. Rafeale, Milan, Italy).
Plasma was stored at −80° C. for determination of sEPCR levels by ELISA.

INR = INR (prothrombin time based) in patients on oral anticoagulant; type: in vivo, human; conditions: individual patients taking Sintrom, one plasma sample per line
[2] = cited from earlier work
[3] = system: prothrombin fragment 1+2 (F1+2)
Protocol: Blood was taken before the start of anticoagulation and sEPCR levels were determined by ELISA over the course of their therapy. There were 3 patients with atrial fibrillation and one patient each with dilative cardiomyopathy, mitral valve disease, atrial fibrillation+stroke, and deep vein thrombosis (DVT).

[4] = cited from earlier work; remark: listed apart in the source

Question: Which “[sEPCR]” value [1] does the source give for CC(=O)CC(c1ccc([N+](=O)[O-])cc1)c1c(O)c2ccccc2oc1=O (centres unmarked) [Sintrom] here?
Answer: Its value is 369 ng/mL and 357 ng/mL and 198 ng/mL and 293 ng/mL.

Question: And the “[sEPCR]” value ([1]; listed as SINTROM)?
Answer: Its value is 357 ng/ml and 131 ng/ml and 92 ng/ml and 127 ng/ml and 59 ng/ml and 61 ng/ml (2×) and 198 ng/ml and 171 ng/ml and 164 ng/ml and 56 ng/ml (2×) and 293 ng/ml and 172 ng/ml and 54 ng/ml and 94 ng/ml and 140 ng/ml and 135 ng/ml and 167 ng/ml and 369 ng/ml and 63 ng/ml.

Question: And the INR (INR)?
Answer: The INR was 2.0 and 2.6 and 3.3 and 3.6.

Question: And the INR (INR; listed as SINTROM)?
Answer: The INR was 2.6 (2×) and 2.7 (2×) and 2.8 and 3.1 (2×) and 3.3 (2×) and 3.4 and 3.5 and 3.6 and 4.5 and >5.0 (4×) and 1.5 and 1.8 and 1.9 and 2.0.

Question: And the half-life ([2]; Sintrom)?
Answer: Its half-life is roughly 8.5 h.

Question: Which “half-life (in words)” value ([2]; in vivo) does the source give for O=C1c2ccccc2C(=O)C1c1ccc(F)cc1 [Previscan] here?
Answer: Its value is “long half-life (days)”.

Question: With 4-hydroxycoumarin [Warfarin] as the compound, how does the “plasma sEPCR levels during Warfarin treatment period” value ([1]; 6 normal adult subjects, Warfarin 7 days, FIG. 4A) read?
Answer: The value was “declined”.

Question: What about the “lag time before sEPCR levels declined after initiation of Warfarin” value ([1]; normal adult subjects) of the same compound?
Answer: Its value is 24 to 48 h.

Question: And the “time after cessation of Warfarin until sEPCR levels began to increase” value ([1]; normal adult subjects)?
Answer: The value was 24 to 48 h.

Question: And the “F1+2 level, % of initial values” ([3]; healthy subjects, day 5 of Warfarin, P<0.05)?
Answer: Its value is 39%.

Question: What about the “F1+2 levels after initiation of Warfarin therapy” value ([3]; seven patients starting oral anticoagulation, FIG. 7) of the same compound?
Answer: The value was “declined in most of the patients”.

Question: What about the “intracranial bleeding, share of patients” value ([4]; during each year of therapy) of the same compound?
Answer: The value was 0.1–0.5%.

Question: And the “major bleeding, share of people treated” value ([4]; during each year of therapy)?
Answer: The value was 1–8%.

Question: And the “Warfarin-induced skin necrosis, share of patients” value ([4]; in vivo)?
Answer: The value was 0.01–0.1%.

Question: What about the “time to maximal blood levels” value ([2]; healthy volunteers, absorbed from the GI tract) of the same compound?
Answer: Its value is 90 min.

Question: And the bioavailability ([2]; in vivo)?
Answer: Its bioavailability is “excellent”.

Question: And the onset ([2]; in vivo)?
Answer: Its onset is 2 to 7 days.
